Entries after “also recorded” stand apart in the source; their conditions may differ.
Key:
[1] = tested on: Trp1455/9M-specific CD8 T cells; assay: In vivo cellular immune response assay (immune adjuvant); set-up: species or system B6 mice; conditions: for fluorescence of stained tetramer positive CD8 T cells: day 7; for maximum amount of fluorescently stained tetramer positive CD8 T cells: day 7, peripheral blood, i.v. immunization, n=3
Method: To assess the efficacy of T-02 as an immune adjuvant, mice were immunized i.v. with a mixture of 100 μg optimized Trp1455/9M peptide (Guevara-Patino, J. A., et al. J Clin Invest, 2006. 116(5):1382-90), 50 μg anti-CD40 mAb (Clone; FGk-45.5), and 50 μg TLR-2 peptide (T-02, Pam2CSK4, or Pam3CSK4). […] The response of tetramer+ CD8 T cells in the blood was measured on day 7, 21, and 34 by tetramer staining. For tetramer staining, peripheral blood was taken from the submandibular vein and treated briefly with ammonium chloride buffer to lyse red blood cells. Blood cells were stained with FITC-conjugated anti-MHC class II, PerCP Cy5.5-conjugated CD8a (both from eBioscience, San Diego, Calif.), and phycoerythrin-conjugated Trp1455/9M/H-2D^b tetramers (provided by the NIH tetramer Facility, Emory University, Atlanta Ga.) for 40 min in ice. Fluorescence was evaluated using a FACSCalibur™ flow cytometer (BD Biosciences) and analyzed using FlowJo software.
C57BL/6 (B6) mice 6-8 weeks old were purchased from Charles River (Wilmington, Mass.). To assess the efficacy of 10 as an immune adjuvant, B6 mice were immunized i.v. with a mixture (in a volume of 200 μl) of 100 μg optimized Trp1455/9M peptide,[10c] 50 μg anti-CD40 monoclonal antibody (Clone; FGk-45.5), and 50 μg TLR2 agonist (10, Pam2CSK4, or Pam3CSK4). […] The response of tetramer positive CD8 T cells in the blood was measured on day 7, 21 and 34 by tetramer staining. For tetramer staining, peripheral blood was taken from the submandibular vein and treated briefly with ammonium chloride buffer to lyse red blood cells. Blood cells were stained with FITC-conjugated anti-MHC class II, PerCP Cy5.5-conjugated CD8a, and phycoerythrin-conjugated Trp1455/9M/H-2D^b tetramers for 40 min in ice. Fluorescence was evaluated using a FACSCalibur flow cytometer (BD Biosciences) and analyzed using FlowJo software.

[2] = tested on: parental HEK293 cells; assay: TLR2 functional bioassay in parental HEK293 cells (negative control); format: cell-based; conditions: ligand stimulated HEK293 cells
From the text: In Vitro TLR2 Functional Bioassay The in vitro TLR2 functional bioassay was developed and optimized for use in screening soluble compound libraries to identify both TLR2 agonists and antagonists. In this study, the TLR2 functional bioassay was used as a fast high throughput screening to identify TLR2 agonist ligands by measuring the inducing activity of NF-κB. HEK293/hTLR2 cells, highly overexpressing human TLR2, were used along with the parental HEK293, cells as a negative control. […] On day 4 after 24 hrs of peptide stimulation, luciferase induced activity by the induction of NF-κB was measured. […] The luminescence intensity was measured using the standard luminescence protocol on a Victor™ X4 plate-reader equipped with a plate stacker for readout of multiple plates at a time (PerkinElmer, Waltham, Mass.). […] Data were analyzed with GraphPad Prism software and curves were generated with the appropriate nonlinear fit regression analysis.
The in vitro TLR2 functional bioassay was developed and optimized for use in high-throughput screening of soluble compound libraries to identify both TLR2 agonists and antagonists. […] On day 4 after 24 h of peptide stimulation, luciferase induced activity by the induction of NF-κB was measured. […]

CCCCCCCCCCCCCCCC(=O)OCC(CSC[C@H](N)C(=O)N[C@@H](CO)C(=O)N[C@@H](CCCCN)C(=O)N[C@@H](CCCCN)C(=O)N[C@@H](CCCCN)C(=O)N[C@@H](CCCCN)C(=O)O)OC(=O)CCCCCCCCCCCCCCC (mixture of isomers) [Pam2CSK4, S-[2,3-bis(palmitoyloxy)-(2RS)-propyl]-[R]-cysteinyl-[S]-seryl-[S]-lysyl-[S]-lysyl-[S]-lysyl-[S]-lysine, reference compound]
fluorescence of stained tetramer positive CD8 T cells [1]: High fluorescence
maximum amount of fluorescently stained tetramer positive CD8 T cells [1]: 56.6%
NF-κB induced luciferase activity in non-expressing TLR2 cell line [2]: did not exhibit significant NF-κB induced luciferase activity

CCCCCCCCCCCCCCCC(=O)N[C@@H](CSCC(COC(=O)CCCCCCCCCCCCCCC)OC(=O)CCCCCCCCCCCCCCC)C(=O)N[C@@H](CO)C(=O)N[C@@H](CCCCN)C(=O)N[C@@H](CCCCN)C(=O)N[C@@H](CCCCN)C(=O)N[C@@H](CCCCN)C(=O)O (mixture of isomers) [Pam3CSK4, N-Palmitoyl-S-[2,3-bis(palmitoyloxy)-(2RS)-propyl]-[R]-cysteinyl-[S]-seryl-[S]-lysyl-[S]-lysyl-[S]-lysyl-[S]-lysine, reference compound]
fluorescence of stained tetramer positive CD8 T cells [1]: High fluorescence
maximum amount of fluorescently stained tetramer positive CD8 T cells [1]: 51.7%
NF-κB induced luciferase activity in non-expressing TLR2 cell line [2]: did not exhibit any significant NF-κB luciferase activity; also recorded: did not exhibit significant NF-κB induced luciferase activity; also recorded: no measurable luminescence; also recorded: No activity was observed

Source: US11458212B2, “Molecular imaging of cancer cells in vivo” (H. Lee Moffitt Cancer Center and Research Institute, Inc., priority 2011, dated 2022)
